Results from patent US20260248881A1, “PHARMACEUTICAL COMPOSITION COMPRISING FOXM1 INHIBITOR AND IMMUNE CHECKPOINT INHIBITOR FOR PREVENTING OR TREATING CANCER” (National Cancer Center, priority 2022, published 2026).

How the values were obtained:
[1] = system: FOXM1 and PD-L1; assay: FOXM1 and PD-L1 expression in MC38 cells (immunoblotting, confocal imaging); format: cell-based, mouse
Protocol: Human colorectal cancer cell lines (HCT116, HCT8, and SW480) and human primary coronary artery smooth muscle cells (SMCs) were purchased from the American Type Culture Collection (Manassas, VA, USA), and a MC38 mouse colorectal adenocarcinoma cell line was provided by Dr. Beom-Kyu Choi (National Cancer Center, Goyang, Republic of Korea). MC38 cells were cultured in Dulbecco's modified Eagle's medium (DMEM) supplemented with 10% FBS and 1% penicillin/streptomycin. SW480 and HCT8 cells were cultured in Roswell Park Memorial Institute (RPMI) medium supplemented with 10% FBS and 1% penicillin/streptomycin. […]
For immunoblotting analysis, protein concentrations were measured using a bicinchoninic acid kit (Cat. 23225; Thermo Fisher Scientific, Carlsbad, CA, USA). […] The appropriate secondary antibodies conjugated to horseradish peroxidase were bound to the washed membrane, and protein bands were detected using a chemiluminescence kit (Thermo Fisher Scientific, Carlsbad, CA, USA).
To confirm the dose-dependent downregulation of PD-L1 levels by TST, which is a FOXM1 inhibitor, live cell imaging was performed on PD-L1 expression in MC38 cells. […] Fluorescence images of nuclei (λex 359 nm, λem 457 nm) and PD-L1 (λex 590 nm, λem 618 nm) were obtained using a confocal scanning laser microscope (LSM780; Carl Zeiss, Oberkochen, Germany).

[2] = system: Lewis lung carcinoma LLC-1; assay: Syngeneic tumor model using murine lung cancer cells LLC-1
Protocol: Lewis lung carcinoma LLC-1, murine lung cancer cells (5×10^5), were implanted subcutaneously in 5-week-old C57BL/6N mice (n=6 per group) (OrientBio, Seoul, Korea) and left for 10 days to form tumors with a volume of approximately 150 mm^3. […] Tumor volumes and body weights of the mice were measured every other day. On day 9, all the mice were sacrificed, and tumor tissues were collected, fixed in formalin, embedded in paraffin, and sectioned for IHC.
CD3^+ T-cells were detected (ab16669, Cambridge, UK) by anti-CD3 antibody Abcam, according to manufacturer's manuals. The positive signal intensity of CD3^+ T-cells was analyzed by using computer image analysis with ImageJ software (LOCI, University of Wisconsin), and the intensity of CD3^+ signals was calculated as a relative ratio of total positive area/total surface area. Pathological images were obtained from an Aperio VERSA slide scanning system (Leica Biosystems Imaging, Vista, CA, USA). At 100× magnification, three independent and intact computerized microscopic fields of each tissue sample were captured by Aperio Imagescope software (Leica Biosystems Imaging, Vista, CA, USA) and were used for analysis of signal intensity of CD3^+ cells in while microscopic fields.
The in vivo synergy between TST and anti-4-1BB antibody-treated groups was determined by calculating a coefficient of drug interaction (CDI), with CDI values<1, <0.7, =1, and >1 indicating synergy, significant synergy, additivity, and antagonism, respectively.
Lewis lung carcinoma (LLC-1) mouse lung cancer cells (5×10^5) were injected subcutaneously into C57BL/6N mice (n=6 per group) and allowed to form tumors with a volume of 150 mm^3 for 10 days.

[3] = cited from earlier work
[4] = system: CD274 promoter; assay: Dual-luciferase assay with CD274 promoter-luciferase construct; format: cell-based, human; settings: TST in the presence of IFNγ
From the text: The pGL3 plasmid containing a 2 kb promoter of CD274 (#107003; Addgene, Watertown, MA, USA) was kindly provided by Julian Downward lab (Coelho M A, de Carne Trecesson S, Rana S, Zecchin D, Moore C, Molina-Arcas M, East P, Spencer-Dene B, Nye E, Barnouin K, Snijders A P, Lai W S, Blackshear P J, Downward J, Immunity 2017, 47, 1083.). H1299 and PC9 cells were co-transfected with a pGL3 2 kb promoter. Cells containing CD274 or control pGL3-basic plasmid and pGL4.70 hRluc Renilla luciferase vector (Promega, Madison, WI, USA) were transfected with siFOXM1 or treated with TST in the presence of interferon-gamma (IFNγ). Cells were harvested 48 hours after transfection, and a dual luciferase assay was performed to the according manufacturer's protocol (#E1910; Promega). At least four independent biological replicates were examined to obtain reliable results.

[5] = system: H1299 and PC9 cells; assay: Apoptotic cell death assay (Annexin V/PI staining); format: cell-based, human; settings: 5 μM TST or siFOXM1
Protocol: H1299 and PC9 cells (1×10^5) were cultured in 6-well plates, transfected with siFOXM1 or NC siRNA or treated with 5 μM TST or dimethyl sulfoxide (DMSO), and then stained using fluorescein isothiocyanate (FITC) Annexin V Apoptosis Detection Kit I (#556547; BD Biosciences). Cells were analyzed within 1 hour to reduce side effects due to staining, and flow cytometry was performed using a FACSVerse cell analyzer (BD Biosciences).

[6] = In vivo toxicity in xenograft mice (serum biochemical analysis, H&E, TUNEL of normal tissues)
Protocol: IHC staining was performed using anti-rabbit-HRP antibodies (K4003, EnVision+ HRP Labelled Polymer Anti-Rabbit, Dako, Agilent Technologies, Carpinteria, CA, USA) and 3,3′-diaminobenzidine (DAB) (K3468, DAB+ Chromogen, Dako, Agilent Technologies, Santa Clara, CA, USA) as substrates, and the sections were counterstained with hematoxylin (K8008, EnVision FLEX Hematoxylin, Dako, Agilent Technologies Singapore, Singapore). To analyze the in vivo toxicity of the tested drugs, four xenograft mice from each group were used for serum biochemical analysis (Table 2). On day 9, serum samples were collected from the mice in the control and TST-treated groups. In addition, the vital organs (liver, spleen, and kidney) were collected form mice, sectioned, and stained with H&E to monitor histopathological changes.

[7] = system: human primary coronary artery smooth muscle cells (SMCs); assay: Cell viability assay (WST-1), SMC normal cells; format: cell-based; settings: 48 hours
Protocol: MC38 and SMC were cultured at a density of 3×10^3 cells/well in 96-well plates. The cells were treated with various concentrations of TST dissolved in the medium for 48 hours, then WST-1 reagent (MK400; Takara) was added at a concentration of 10 μL/well and cultured for 1 hour. The absorbance was measured at 450 nm for further analysis.

[8] = system: FOXM1 and PD-L1; assay: Immunoblotting of FOXM1 and PD-L1 in human colorectal cancer cell lines; format: cell-based; settings: 5 μM TST; HCT8, HCT116, and SW480
Protocol: Human colorectal cancer cell lines (HCT116, HCT8, and SW480) and human primary coronary artery smooth muscle cells (SMCs) were purchased from the American Type Culture Collection (Manassas, VA, USA), and a MC38 mouse colorectal adenocarcinoma cell line was provided by Dr. Beom-Kyu Choi (National Cancer Center, Goyang, Republic of Korea). MC38 cells were cultured in Dulbecco's modified Eagle's medium (DMEM) supplemented with 10% FBS and 1% penicillin/streptomycin. SW480 and HCT8 cells were cultured in Roswell Park Memorial Institute (RPMI) medium supplemented with 10% FBS and 1% penicillin/streptomycin. HCT116 cells were maintained in McCoy's 5A medium supplemented with 10% FBS and 1% penicillin/streptomycin. Cells were maintained at 37° C. in a humidified incubator with 5% CO2.
For immunoblotting analysis, protein concentrations were measured using a bicinchoninic acid kit (Cat. 23225; Thermo Fisher Scientific, Carlsbad, CA, USA). Proteins were separated by SDS-PAGE electrophoresis. […] The appropriate secondary antibodies conjugated to horseradish peroxidase were bound to the washed membrane, and protein bands were detected using a chemiluminescence kit (Thermo Fisher Scientific, Carlsbad, CA, USA).

Substance: thiostrepton [TST]
- level of PD-L1 in the plasma membrane ([1]; MC38, TST 0, 1, 5, and 10 μM, 48 hours): dose-dependently decreased
- FOXM1 and PD-L1 expression levels ([1]; MC38 mouse colorectal cancer cells): dose-dependently decreased
- number of apoptotic tumor cells (TUNEL), vs control group ([2]; day 9): 2.46 fold
- increase in CD3+ T cells in tumors, vs control group ([2]; immunohistochemical staining): 1.32 fold
- tumor growth inhibition ([2]; treatment initiated at smaller tumor size (~80 mm^3), antibodies 0.2 mg/mouse): 63.1%
- inhibition of tumor growth ([2]; tumors 150 mm^3 at start, TST 17 mg/kg, anti-4-1BB 0.2 mg/mouse, day 1, 3, 5, 7, vs control group): 48%
- solubility in water [3]: low solubility in water
- decrease in relative luciferase activity (CD274 promoter activity) ([4]; H1299): 53%
- decrease in relative luciferase activity (CD274 promoter activity) ([4]; PC9): 66%
- apoptotic cell population (annexin V/PI positive cells) [5]: significantly increased in a time-dependent manner
- histological changes in vital organs (H&E staining) ([6]; liver, spleen, kidney): no significant histological changes
- A/G ratio ([6]; serum, day 9, n = 4): 1.99 ± 0.13
- ALP ([6]; serum, day 9, n = 4): 91.50 ± 15.04 U/L
- ALT ([6]; serum, day 9, n = 4): 31.25 ± 4.21 U/L
- AST ([6]; serum, day 9, n = 4): 82.75 ± 8.58 U/L
- Alb ([6]; serum, day 9, n = 4): 3.28 ± 0.08 g/dL
- BUN ([6]; serum, day 9, n = 4): 19.70 ± 1.11 mg/dL
- Crea ([6]; serum, day 9, n = 4): 0.00 ± 0.00 mg/dL
- Glo ([6]; serum, day 9, n = 4): 1.65 ± 0.09 g/dL
- Glu ([6]; serum, day 9, n = 4): 321.00 ± 58.73 mg/dL
- T-Bill ([6]; serum, day 9, n = 4): 0.10 ± 0.00 mg/dL
- T-chol ([6]; serum, day 9, n = 4): 107.50 ± 3.20 mg/dL
- TG ([6]; serum, day 9, n = 4): 118.00 ± 14.88 mg/dL
- TP ([6]; serum, day 9, n = 4): 4.93 ± 0.08 g/dL
- levels of blood biomarkers ([6]; vs DMSO control group): not significantly changed
- apoptotic cell death in normal tissues (TUNEL assay) ([6]; vs DMSO control tissues): no effect on apoptotic cell death in normal tissues
- in vitro cytotoxicity on SMC normal cells [7]: no significant apoptotic cell death
- FOXM1 and PD-L1 levels [8]: significantly decreased both FOXM1 and PD-L1 levels
